Laboratory results: PubChem BioAssay AID2060602 (Molecular Pharmacology Branch, DTP, NCI, 2025)

System: 648629-189-R-J1-PDC complex spheroids viability
Test: Anticancer human tumor 648629-189-R-J1-PDC patient-derived bladder carcinoma cell line growth inhibition [CLK]
Details: for viability, T/C: stronger effect = lower value
Description: A high-throughput screen of multi-cell type tumor spheroids was designed to identify active combinations of […] and targeted small molecules. Complex spheroids include a stromal component modeled by human endothelial cells (HUVEC) and fibroblasts modeled by human mesenchymal stem cells (MSCs). The concentration ranges selected for each drug and investigational agent were based upon clinically achievable concentrations if the clinical Cmax of the agent was known.
Compounds. The drugs and investigational agents: cirtuvivint (SM08502; NSC835563), CC-671 (NSC850746), vemurafenib (NSC761431), tapotoclax (NSC804041), sotorasib (NSC818433), adagrasib (NSC831453), MRTX-1133 (NSC836407), BAY2416964 (NSC825713), copanlisib (NSC816437), inavolisib (NSC800729), abemaciclib (NSC768073), osimertinib (NSC779217), entinostat (NSC756642), eltanexor (KPT-8602, NSC794443), venetoclax (NSC766270), ceralasertib (NSC777638), bortezomib (NSC756655), olaparib (NSC753686), talazoparib (NSC767125), alisertib (NSC759677), peposertib (NSC802822), gemcitabine (NSC613327), 5-fluorouracil (NSC19893), SN-38 (NSC673596), oxaliplatin (NSC266046), paclitaxel (NSC125973), and doxorubicin (NSC123127), were obtained from the National Cancer Institute (NCI) Developmental Therapeutics Program Chemical Repository. The FDA-approved anticancer drug set is available from the Developmental Therapeutics Program at https://dtp.cancer.gov/organization/dscb/obtaining/available plates.htm. […] The stock solutions were prepared in dimethyl sulfoxide (DMSO, Sigma-Aldrich, St. Louis, MO, cat. D2650), except for the platinum complexes which were prepared in saline (Quality Biological, Gaithersburg, MD, cat. 114-055-101), at 800-fold the tested concentration and stored at -70 degrees C prior to their use. All drugs and investigational agents were tested over a range starting from a high concentration at or near the clinical Cmax and decreasing in half-log increments. If the clinical Cmax for an agent had not been determined, the highest concentration tested was 10 microM.
Cell Culture. All cells were maintained in an incubator at 37 degrees C and 5% CO2 with 95% humidity. The PDC lines were cultured according to standard operating procedures established by the NCI PDMR. Briefly, all PDCs were thawed and cultured in Matrigel-coated flasks prepared with a working solution of 1X Ham's F-12 nutrient mix, without supplementation (Invitrogen, Waltham, MA, cat. 11765054), 100 U/mL penicillin-streptomycin (Invitrogen, cat. 15140122), and 2.5% Matrigel (Corning Inc., Corning, NY, cat. 354248) for the first three passages. The 947758-054-R-J2-PDC line was cultured in 6B/Colon 1A media, which includes advanced DMEM/F-12 (Thermo Fisher Scientific, cat. 12634028), 10 mM HEPES (Thermo Fisher Scientific, cat. 15630080), 1X GlutaMAX supplement (Thermo Fisher Scientific, cat. 35050061), 0.1 mg/mL primocin (InvivoGen, cat. ant-pm-2), 10% defined fetal bovine serum, heat inactivated (HyClone Laboratories Inc., cat. SH30070.03HI), 1.25 mM N-Acetyl-L-cysteine (Sigma-Aldrich, cat. A9165), 10 mM nicotinamide (Sigma-Aldrich, cat. N0636), 1X B-27 supplement (Thermo Fisher Scientific, cat. 17504044), 1X N-2 supplement (Thermo Fisher Scientific, cat. 17502048), and 10 microM Y-27632 dihydrochloride (Tocris Bioscience, cat. 1254). The 876862-298-R-J1-PDC was cultured in 6E media, which includes all 6B/Colon 1A media components plus 50% L-WRN conditioned media (ATCC, cat. CRL-3276), 50 ng/mL recombinant human EGF recombinant protein (hEGF; Thermo Fisher Scientific, cat. PHG0311), 10 ng/mL recombinant human fibroblast growth factor 10 (hGFG-10; PeproTech, cat. 100-26), 1 ng/mL recombinant human fibroblast growth factor 2 (hFGF-2; PeproTech, cat. 100-18B), and 1 µM prostaglandin E2 (PGE2; Tocris, cat. 2296). The 227483-062-R1-J1-PDC line was cultured in Panc media, containing all 6E components except hFGF-2, with the addition of 500 nM SB-431542 (Selleckchem, cat. S1067) and 10 nM gastrin (Tocris, cat. 3006). […]

[1] = curve of first compound, second compound 0.0316 µM
[2] = curve of first compound, second compound 0.1 µM
[3] = curve of first compound, second compound 0.316 µM
[4] = curve of first compound, second compound 1 µM
[5] = curve of first compound, second compound 3.16 µM
[6] = curve of first compound, second compound 10 µM
[7] = second compound 0.0316 µM, first compound 0.0316 µM
[8] = second compound 0.0316 µM, first compound 0.1 µM
[9] = second compound 0.0316 µM, first compound 0.316 µM
[10] = second compound 0.0316 µM, first compound 1 µM
[11] = second compound 0.0316 µM, first compound 3.16 µM
[12] = second compound 0.0316 µM, first compound 10 µM
[13] = second compound 0.1 µM, first compound 0.0316 µM
[14] = second compound 0.1 µM, first compound 0.1 µM
[15] = second compound 0.1 µM, first compound 0.316 µM
[16] = second compound 0.1 µM, first compound 1 µM
[17] = second compound 0.1 µM, first compound 3.16 µM
[18] = second compound 0.1 µM, first compound 10 µM
[19] = second compound 0.316 µM, first compound 0.0316 µM
[20] = second compound 0.316 µM, first compound 0.1 µM
[21] = second compound 0.316 µM, first compound 0.316 µM
[22] = second compound 0.316 µM, first compound 1 µM
[23] = second compound 0.316 µM, first compound 3.16 µM
[24] = second compound 0.316 µM, first compound 10 µM
[25] = second compound 1 µM, first compound 0.0316 µM
[26] = second compound 1 µM, first compound 0.1 µM
[27] = second compound 1 µM, first compound 0.316 µM
[28] = second compound 1 µM, first compound 1 µM
[29] = second compound 1 µM, first compound 3.16 µM
[30] = second compound 1 µM, first compound 10 µM
[31] = second compound 3.16 µM, first compound 0.0316 µM
[32] = second compound 3.16 µM, first compound 0.1 µM
[33] = second compound 3.16 µM, first compound 0.316 µM
[34] = second compound 3.16 µM, first compound 1 µM
[35] = second compound 3.16 µM, first compound 3.16 µM
[36] = second compound 3.16 µM, first compound 10 µM
[37] = second compound 10 µM, first compound 0.0316 µM
[38] = second compound 10 µM, first compound 0.1 µM
[39] = second compound 10 µM, first compound 0.316 µM
[40] = second compound 10 µM, first compound 1 µM
[41] = second compound 10 µM, first compound 3.16 µM
[42] = second compound 10 µM, first compound 10 µM
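For viability, T/C in this document: drug exposure lasted seven days before viability readout; 100% = DMSO vehicle control wells.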

For O=C(c1cc(Cc2n[nH]c(=O)c3ccccc23)ccc1F)N1CCN(C(=O)C2CC2)CC1 + CNC(=O)c1ccc(Nc2nc(OC3CCCC3)c3c(-c4ccc5nc(C)oc5c4)c[nH]c3n2)c(OC)c1, the IC50 [1] was > 10000 nM, the IC50 [2] was > 10000 nM and the IC50 [3] was < 31.6 nM. For the same compound, the IC50 [4] was < 31.6 nM, the IC50 [5] was < 31.6 nM and the IC50 [6] was < 31.6 nM. For the same compound, the viability, T/C [7] was 92.3%, the viability, T/C [8] was 101% and the viability, T/C [9] was 103%. The viability, T/C [10] was 106%, the viability, T/C [11] was 83.3% and the viability, T/C [12] was 74.9%. It also gave a viability, T/C [13] of 93.6%, a viability, T/C [14] of 95.1% and a viability, T/C [15] of 89.3%. It also gave a viability, T/C [16] of 86.9%, a viability, T/C [17] of 82.9% and a viability, T/C [18] of 70.8%. The viability, T/C [19] was 26.9%, the viability, T/C [20] was 29% and the viability, T/C [21] was 27.1%. It also gave a viability, T/C [22] of 29.1%, a viability, T/C [23] of 28.7% and a viability, T/C [24] of 27.4%. The viability, T/C [25] was 18.8%, the viability, T/C [26] was 17.3% and the viability, T/C [27] was 20.1%. For the same compound, the viability, T/C [28] was 17.2%, the viability, T/C [29] was 17.6% and the viability, T/C [30] was 18.6%. The viability, T/C [31] was 15.9%, the viability, T/C [32] was 18.9% and the viability, T/C [33] was 19%. The viability, T/C [34] was 20.3%, the viability, T/C [35] was 19% and the viability, T/C [36] was 19.2%. For the same compound, the viability, T/C [37] was 23.8%, the viability, T/C [38] was 21.7% and the viability, T/C [39] was 22%. It also gave a viability, T/C [40] of 19%, a viability, T/C [41] of 20.2% and a viability, T/C [42] of 21.1%.
For CN1CCN(c2cc(C(=O)Nc3cc4cc(-c5cnn(C)c5)ccc4cn3)ccn2)CC1, the viability, T/C (compound 0.0316 µM) was 113% [middle of 12 runs], the viability, T/C (compound 0.1 µM) was 105% [middle of 12 runs] and the viability, T/C (compound 1 µM) was 0.38% [middle of 11 runs]. The viability, T/C (compound 3.16 µM) was 0.16% [middle of 7 runs], the viability, T/C (compound 10 µM) was 0.15% [middle of 7 runs] and the IC50 (compound alone, run of 07/31/2023) was 286 nM [middle of 11 runs].
CC(CO)NC(=O)c1cc(-c2ccc(Cl)cc2)nn(-c2cnn(C)c2)c1=O (stereo not given) + CN1CCN(c2cc(C(=O)Nc3cc4cc(-c5cnn(C)c5)ccc4cn3)ccn2)CC1 was tested, and the IC50 [1] was > 10000 nM, the IC50 [2] was > 10000 nM and the IC50 [3] was < 31.6 nM. For the same compound, the IC50 [4] was < 31.6 nM, the IC50 [5] was < 31.6 nM and the IC50 [6] was < 31.6 nM. The viability, T/C [7] was 109%, the viability, T/C [8] was 109% and the viability, T/C [9] was 99.3%. It also gave a viability, T/C [10] of 125%, a viability, T/C [11] of 109% and a viability, T/C [12] of 85.6%. It also gave a viability, T/C [13] of 103%, a viability, T/C [14] of 100% and a viability, T/C [15] of 94.5%. For the same compound, the viability, T/C [16] was 114%, the viability, T/C [17] was 105% and the viability, T/C [18] was 84.7%. The viability, T/C [19] was 38.1%, the viability, T/C [20] was 51.2% and the viability, T/C [21] was 44.7%. The viability, T/C [22] was 56.9%, the viability, T/C [23] was 47.2% and the viability, T/C [24] was 43.6%. For the same compound, the viability, T/C [25] was 0.43%, the viability, T/C [26] was 0.37% and the viability, T/C [27] was 0.32%. For the same compound, the viability, T/C [28] was 0.48%, the viability, T/C [29] was 0.38% and the viability, T/C [30] was 0.26%. It also gave a viability, T/C [31] of 0.14%, a viability, T/C [32] of 0.17% and a viability, T/C [33] of 0.16%. For the same compound, the viability, T/C [34] was 0.18%, the viability, T/C [35] was 0.17% and the viability, T/C [36] was 0.18%. It also gave a viability, T/C [37] of 0.22%, a viability, T/C [38] of 0.25% and a viability, T/C [39] of 0.22%. It also gave a viability, T/C [40] of 0.23%, a viability, T/C [41] of 0.24% and a viability, T/C [42] of 0.22%.
